Test in all cases: microbe, parasite or virus in culture
The subject of assay [1] is Pseudotyped HCV GT1a particles (HCVpp). It is filed as cell-based, Hepatitis C virus GT1a H77 strain. The note with it: Hepatitis C virus, 72 h, read-out: HCVpp GT-1a (EC50, μM).
The test system of assay [2] is pseudotyped VSV G particles (VSVpp). The class given is cell-based. The settings on record: Vesicular stomatitis virus, 72 h, read-out: VSVpp (EC50, μM).
Assay [3] deals with Pseudotyped HCV GT1b particles (HCVpp). It is filed as cell-based, Hepatitis C virus GT1b Con1 strain. The settings on record: Hepatitis C virus, 72 h, read-out: HCVpp GT-1b (EC50, μM).

Drawing on patent US9511059B2, “Antiviral compounds” (priority 2013, dated 2016), this text covers EC50 for 26 compounds.

In general, EC50 refers to the midpoint of the concentration-response curve.

Regarding `Nc1n[nH]c(Nc2cc(F)c(Sc3ccccc3)c(C(F)(F)F)c2)n1` [Compound 1, N^5-(3-Fluoro-4-phenylsulfanyl-5-trifluoromethylphenyl)-1H-[1,2,4]-triazole-3,5-diamine], the EC50 was 0.31 µM in assay [1] and 13.2 µM in assay [2].
For `Nc1nc(Nc2ccc(Nc3ccccc3)c(Cl)c2)n[nH]1` [Compound 2, N*3*-(3-Chloro-4-phenylamino-phenyl)-1H-[1,2,4]triazole-3,5-diamine], the EC50 was determined as 2.44 µM in assay [1], 0.393 µM in assay [3] and 86 µM in assay [2].
For `Nc1nc(Nc2ccc(Oc3ccccc3)c(Cl)c2)n[nH]1` [Compound 3, N*3*-(3-Chloro-4-phenoxy-phenyl)-1H-[1,2,4]triazole-3,5-diamine] the same measures were 2.77 µM, 0.329 µM and 35.5 µM.
On to `Nc1nc(Nc2cc(Cl)c(Sc3ccccc3)c(Cl)c2)n[nH]1` [Compound 4, N*3*-(3,5-Dichloro-4-phenylsulfanyl-phenyl)-1H-[1,2,4]triazole-3,5-diamine], for which the EC50 in assay [1] was 0.076 µM; in assay [2] it was 3.3 µM.
Turning to `Nc1nc(Nc2cc(Cl)c([S+]([O-])c3ccccc3)c(Cl)c2)n[nH]1` (stereo not shown) [Compound 5, N*3*-(4-Benzenesulfinyl-3,5-dichloro-phenyl)-1H-[1,2,4]triazole-3,5-diamine], the results for the EC50 in assay [1] and in assay [2] were 0.293 µM and 25.3 µM, respectively.
For `Nc1nc(Nc2cc(Cl)c(S(=O)(=O)c3ccccc3)c(Cl)c2)n[nH]1` [Compound 6, N*3*-(4-Benzenesulfonyl-3,5-dichloro-phenyl)-1H-[1,2,4]triazole-3,5-diamine] the same measures were 0.139 µM and 34 µM.
In the case of `Nc1nc(Nc2cc(Cl)c(Sc3ccc(C(F)(F)F)cc3)c(Cl)c2)n[nH]1` [Compound 7, N3-(3,5-dichloro-4-(4-(trifluoromethyl)phenylthio)phenyl)-1H-1,2,4-triazole-3,5-diamine], the EC50 in assay [3] stood at 0.009 µM; in assay [2] it was 100 µM.
Consider `Nc1nc(Nc2cc(Cl)c([S+]([O-])c3ccc(C(F)(F)F)cc3)c(Cl)c2)n[nH]1` (stereo not shown) [Compound 8, N3-(3,5-dichloro-4-(4-(trifluoromethyl)phenylsulfinyl)phenyl)-1H-1,2,4-triazole-3,5-diamine], for which the values for the EC50 in assay [1], in assay [3] and in assay [2] were 0.114 µM, 0.079 µM and 10 µM, respectively.
As for `Nc1nc(Nc2cc(Cl)c(Sc3cccc(C(F)(F)F)c3)c(Cl)c2)n[nH]1` [Compound 9, N3-(3,5-dichloro-4-(3-(trifluoromethyl)phenylthio)phenyl)-1H-1,2,4-triazole-3,5-diamine], the results for the EC50 in assay [1] and in assay [2] were 0.15 µM and 3 µM, respectively.
For `Nc1nc(Nc2cc(Cl)c(Sc3ccccc3C(F)(F)F)c(Cl)c2)n[nH]1` [Compound 10, N*3*-[3,5-Dichloro-4-(2-trifluoromethyl-phenylsulfanyl)-phenyl]-1H-[1,2,4]triazole-3,5-diamine], the EC50 in assay [1] came out at 0.263 µM; in assay [2], 7.7 µM.
On the same counts, the results for `Nc1nc(Nc2cc(Cl)c([S+]([O-])c3cccc(C(F)(F)F)c3)c(Cl)c2)n[nH]1` (stereo not shown) [Compound 11, N^3-[3,5-Dichloro-4-(3-trifluoromethyl-benzenesulfinyl)-phenyl]-1H-[1,2,4]triazole-3,5-diamine] are 0.61 µM and 10 µM.
On the same counts, the results for `N#Cc1ccc(Sc2c(Cl)cc(Nc3n[nH]c(N)n3)cc2Cl)cc1` [Compound 12, 4-[4-(5-Amino-1H-[1,2,4]triazol-3-ylamino)-2,6-dichloro-phenylsulfanyl]-benzonitrile] are 0.077 µM and 3.4 µM.
For the compound `N#Cc1ccc([S+]([O-])c2c(Cl)cc(Nc3n[nH]c(N)n3)cc2Cl)cc1` (stereo not shown) [Compound 13, 4-[4-(5-Amino-1H-[1,2,4]triazol-3-ylamino)-2,6-dichloro-benzenesulfinyl]-benzonitrile], the figures for the EC50 in assay [1] and in assay [2] were 0.674 µM and 10 µM, respectively.
For `N#Cc1ccc(S(=O)(=O)c2c(Cl)cc(Nc3n[nH]c(N)n3)cc2Cl)cc1` [Compound 14, 4-[4-(5-Amino-1H-[1,2,4]triazol-3-ylamino)-2,6-dichloro-benzenesulfonyl]-benzonitrile] the same measures were 0.366 µM and 10 µM.
On the same counts, the results for `COC(=O)c1ccc(Sc2c(Cl)cc(Nc3n[nH]c(N)n3)cc2C(F)(F)F)cc1` [Compound 15, 4-[4-(5-Amino-1H-[1,2,4]triazol-3-ylamino)-2-chloro-6-trifluoromethyl-phenylsulfanyl]-benzoic acid methyl ester] are 0.133 µM and 49.8 µM.
For `COc1ccc(Sc2c(Cl)cc(Nc3n[nH]c(N)n3)cc2Cl)cc1` [Compound 16, N*3*-[3,5-Dichloro-4-(4-methoxy-phenylsulfanyl)-phenyl]-1H-[1,2,4]triazole-3,5-diamine] the same measures were 1.02 µM and 40.2 µM.
With `COc1ccc(Sc2c(Cl)cc(Nc3n[nH]c(N)n3)cc2C(F)(F)F)cc1` [Compound 17, N*3*-[3-Chloro-4-(4-methoxy-phenylsulfanyl)-5-trifluoromethyl-phenyl]-1H-[1,2,4]triazole-3,5-diamine], the EC50 in assay [1] is 1.04 µM; in assay [2], 34.9 µM.
On the same counts, the results for `COc1ccc(S(=O)(=O)c2c(Cl)cc(Nc3n[nH]c(N)n3)cc2Cl)cc1` [Compound 18, N*3*-[3,5-Dichloro-4-(4-methoxy-benzenesulfonyl)-phenyl]-1H-[1,2,4]triazole-3,5-diamine] are 0.126 µM and 0.1 µM.
Consider `CS(=O)(=O)c1ccc(Oc2c(Cl)cc(Nc3n[nH]c(N)n3)cc2Cl)cc1` [Compound 19, N*3*-[3,5-Dichloro-4-(4-methanesulfonyl-phenoxy)-phenyl]-1H-[1,2,4]triazole-3,5-diamine], for which the EC50 amounted to 0.019 µM in assay [1], 0.008 µM in assay [3] and 20.2 µM in assay [2].
Regarding `CS(=O)(=O)c1ccc(Oc2c(Cl)cc(Nc3n[nH]c(N)n3)cc2C(F)(F)F)cc1` [Compound 20, N*3*-[3-Chloro-4-(4-methanesulfonyl-phenoxy)-5-trifluoromethyl-phenyl]-1H-[1,2,4]triazole-3,5-diamine], the EC50 in assay [1] was determined as 0.232 µM; in assay [2], 10 µM.
On the same counts, the results for `Nc1nc(Nc2cc(Cl)cc(OCc3ccccc3)c2)n[nH]1` [Compound 21, N*5*-(3-Benzyloxy-5-chloro-phenyl)-1H-[1,2,4]triazole-3,5-diamine] are 1.67 µM and 39.2 µM.
As to `Nc1nc(Nc2ccc(Sc3ccccc3)c(Cl)c2)n[nH]1` [Compound 22, N3-(3-chloro-4-(phenylthio)phenyl)-1H-1,2,4-triazole-3,5-diamine], the EC50 in assay [1] was determined as 1.65 µM; in assay [3] it was 0.229 µM; in assay [2], 14.3 µM.
For `Nc1nc(Nc2ccc(S(=O)(=O)c3ccccc3)c(Cl)c2)n[nH]1` [Compound 23, N3-(3-chloro-4-(phenylsulfonyl)phenyl)-1H-1,2,4-triazole-3,5-diamine] the same measures were 4.62 µM, 0.517 µM and 40.1 µM.
On to `CN(c1ccc(Sc2ccccc2)c(Cl)c1)c1n[nH]c(N)n1` [Compound 24, N3-(3-chloro-4-(phenylthio)phenyl)-N3-methyl-1H-1,2,4-triazole-3,5-diamine], for which the EC50 in assay [3] worked out at 42.1 µM; in assay [2], 100 µM.
On the same counts, the results for `Nc1nc(Nc2cc(Cl)cc(Oc3ccccc3)c2)n[nH]1` [Compound 25, N*3*-(3-Chloro-5-phenoxy-phenyl)-1H-[1,2,4]triazole-3,5-diamine] are 1.9 µM and 100 µM.
As to `Nc1nc(Nc2cc(Cl)c(Oc3ccccn3)c(Cl)c2)n[nH]1` [Compound 26, N*3*-[3,5-Dichloro-4-(pyridin-2-yloxy)-phenyl]-1H-[1,2,4]triazole-3,5-diamine], the EC50 in assay [1] came to 1.88 µM; in assay [2] it was 43.5 µM.
